From ChEMBL document CHEMBL1132704, “Design and synthesis of sulfonyl-substituted 4,5-diarylthiazoles as selective cyclooxygenase-2 inhibitors” (Bioorg Med Chem Lett, 1999)

Legend:
[1] = target: T1, Prostaglandin G/H synthase 2 (Homo sapiens, UniProt P35354)
T1 sequence (P35354 whole entry): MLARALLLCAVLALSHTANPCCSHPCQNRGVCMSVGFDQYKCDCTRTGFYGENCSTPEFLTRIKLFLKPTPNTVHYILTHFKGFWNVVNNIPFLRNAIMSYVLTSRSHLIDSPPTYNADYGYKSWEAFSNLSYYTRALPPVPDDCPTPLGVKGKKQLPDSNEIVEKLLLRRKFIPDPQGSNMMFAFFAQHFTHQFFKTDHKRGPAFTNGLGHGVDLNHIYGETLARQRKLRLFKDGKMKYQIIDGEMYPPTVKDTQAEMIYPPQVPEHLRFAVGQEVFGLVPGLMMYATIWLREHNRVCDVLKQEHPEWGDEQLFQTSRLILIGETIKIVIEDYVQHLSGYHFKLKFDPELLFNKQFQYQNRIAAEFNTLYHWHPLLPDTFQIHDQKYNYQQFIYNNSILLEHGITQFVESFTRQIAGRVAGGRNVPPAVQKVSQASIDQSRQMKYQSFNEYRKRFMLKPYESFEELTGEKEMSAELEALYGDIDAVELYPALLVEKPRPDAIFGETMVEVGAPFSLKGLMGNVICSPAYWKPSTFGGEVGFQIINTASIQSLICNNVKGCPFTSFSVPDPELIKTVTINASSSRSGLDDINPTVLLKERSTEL

[2] = target: Prostaglandin G/H synthase 1 (Homo sapiens, UniProt P23219)
Description: Inhibition of human cyclooxygenase-1 (hCOX-1) enzyme.

[3] = test system: Rattus norvegicus; assay: Compound was evaluated for the percent inhibition of hyperalgesia at an effective dose of 20 mg/kg in rat; type: functional
[4] = test system: Rattus norvegicus; assay: Compound was evaluated for the antiinflammatory activity in vivo in the carrageenan rat paw edema (CPE); type: functional

Prostaglandin G/H synthase 1, sequence (P23219 whole entry): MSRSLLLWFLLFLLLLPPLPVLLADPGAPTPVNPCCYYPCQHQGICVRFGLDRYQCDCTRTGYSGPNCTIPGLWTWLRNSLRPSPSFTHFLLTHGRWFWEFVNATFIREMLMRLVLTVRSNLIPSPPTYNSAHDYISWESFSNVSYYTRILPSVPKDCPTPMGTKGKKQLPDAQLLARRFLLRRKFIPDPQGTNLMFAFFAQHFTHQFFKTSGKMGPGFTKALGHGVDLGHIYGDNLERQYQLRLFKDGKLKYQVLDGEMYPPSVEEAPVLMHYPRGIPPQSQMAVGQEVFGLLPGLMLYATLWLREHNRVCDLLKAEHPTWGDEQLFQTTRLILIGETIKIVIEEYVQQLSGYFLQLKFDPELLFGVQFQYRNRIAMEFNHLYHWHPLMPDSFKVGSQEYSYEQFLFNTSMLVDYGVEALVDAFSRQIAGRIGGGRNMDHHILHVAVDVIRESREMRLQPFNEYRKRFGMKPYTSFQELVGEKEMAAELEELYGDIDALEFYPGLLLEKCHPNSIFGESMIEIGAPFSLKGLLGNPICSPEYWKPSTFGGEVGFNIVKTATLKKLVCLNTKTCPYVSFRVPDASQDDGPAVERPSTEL

| Compound | IC50 [1] [µM] | IC50 [2] [µM] | inhibition in vivo at 20 mg/kg [3] [%] | ED50 [4] [mg/kg] |
| --- | --- | --- | --- | --- |
| CS(=O)(=O)c1ccc(-c2sc(Cc3ccccc3)nc2-c2ccc(F)cc2)cc1 | 0.018 | > 100 | – | – |
| Cc1nc(-c2ccc(S(C)(=O)=O)cc2)c(-c2ccc(F)cc2)s1 | 0.12 | > 100 | – | – |
| CS(=O)(=O)c1ccc(-c2sc(-c3ccccc3Cl)nc2-c2cccs2)cc1 | – | > 100 | – | – |
| CS(=O)(=O)c1ccc(-c2nc(-c3ccccc3)sc2-c2ccc(F)cc2)cc1 | 0.54 | > 100 | – | – |
| CS(=O)(=O)c1ccc(-c2sc(-c3ccccc3Cl)nc2-c2ccc(F)cc2F)cc1 | 0.021 | – | – | – |
| CS(=O)(=O)c1ccc(-c2sc(-c3cccs3)nc2-c2ccc(F)cc2)cc1 | 0.021 | > 100 | – | – |
| CS(=O)(=O)c1ccc(-c2sc(CCCc3ccccc3)nc2-c2ccc(F)cc2)cc1 | 0.52 | > 1000 | – | – |
| CS(=O)(=O)c1ccc(-c2sc(-c3ccccc3Cl)nc2-c2ccsc2)cc1 | – | > 100 | – | – |
| CS(=O)(=O)c1ccc(-c2sc(-c3ccccc3Cl)nc2-c2cccc(F)c2)cc1 | 0.016 | > 100 | – | – |
| Cc1nc(-c2ccc(F)cc2)c(-c2ccc(S(C)(=O)=O)cc2)s1 | 0.11 | > 10 | – | – |
| CCOC(=O)c1nc(-c2ccc(F)cc2)c(-c2ccc(S(C)(=O)=O)cc2)s1 | 0.61 | > 100 | – | – |
| CS(=O)(=O)c1ccc(-c2sc(-c3ccc(Cl)cc3)nc2-c2ccc(F)cc2)cc1 | 0.05 | > 100 | – | – |
| CS(=O)(=O)c1ccc(-c2sc(-c3cccnc3)nc2-c2ccc(F)cc2)cc1 | 0.43 | > 1000 | – | – |
| CS(=O)(=O)c1ccc(-c2sc(-c3ccccc3Cl)nc2-c2ccc(F)cc2)cc1 | 0.05 | > 100 | 27 | 20 |
| CC(C)(C)c1nc(-c2ccc(F)cc2)c(-c2ccc(S(C)(=O)=O)cc2)s1 | 0.11 | > 100 | – | – |
| CS(=O)(=O)c1ccc(-c2sc(CC#N)nc2-c2ccc(F)cc2)cc1 | 0.35 | > 100 | – | – |
| CS(=O)(=O)c1ccc(-c2sc(CCc3ccccc3)nc2-c2ccc(F)cc2)cc1 | 0.032 | > 100 | – | – |
| CS(=O)(=O)c1ccc(-c2sc(-c3ccccc3)nc2-c2ccc(F)cc2)cc1 | > 30 | > 100 | – | – |
| CS(=O)(=O)c1ccc(-c2sc(-c3ccncc3)nc2-c2ccc(F)cc2)cc1 | 1.6 | > 100 | – | – |
| CS(=O)(=O)c1ccc(-c2sc(-c3ccccc3Cl)nc2-c2ccccc2F)cc1 | 0.01 | > 100 | – | – |
| CC(C)(C)c1ccc(-c2nc(-c3ccc(F)cc3)c(-c3ccc(S(C)(=O)=O)cc3)s2)cc1 | > 100 | > 100 | – | – |
| CS(=O)(=O)c1ccc(-c2sc(-c3ccccc3Cl)nc2-c2cc(F)ccc2F)cc1 | > 100 | > 100 | – | – |
| CS(=O)(=O)c1ccc(-c2sc(C(F)(F)F)nc2-c2ccc(F)cc2)cc1 | 0.023 | > 100 | – | – |
| CS(=O)(=O)c1ccc(-c2nc(C(F)(F)F)sc2-c2ccc(F)cc2)cc1 | 0.006 | 1.07 | – | – |
| COc1ccc(-c2nc(-c3ccc(F)cc3)c(-c3ccc(S(C)(=O)=O)cc3)s2)cc1 | 0.27 | > 10 | – | – |
| CCc1nc(-c2ccc(F)cc2)c(-c2ccc(S(C)(=O)=O)cc2)s1 | 0.023 | 19 | – | – |
| CS(=O)(=O)c1ccc(-c2sc(-c3ccccc3Cl)nc2-c2ccccc2)cc1 | 0.01 | > 100 | – | – |
| CS(=O)(=O)c1ccc(-c2sc(CCCc3ccc(Br)cc3)nc2-c2ccc(F)cc2)cc1 | 0.007 | > 10 | – | – |
